Experimental data taken from patent US6852333B1, “Agents and methods for promoting production gains in animals” (The Horticulture and Food Research Institute of New Zealand …, priority 1999, dated 2005).

Assays:
[1] = Broiler chicken trial: weight and feed conversion ratio with SAC in feed (Experiment 7); type: in vivo, broiler chickens
Description: This work aimed to investigate the effectiveness of an antistress containing composition or a stress alleviating composition (conveniently referred to as “SAC”), ([…], vitamin C and long chain amino acid mix) versus a calorie adjusted control, in lowering the physiological responses to stress and promoting growth in an intensive production systems (broiler chickens). In addition, the effect of the SAC agent in combination with existing industry feed additives (Performance enhancers: antibiotics and indigestible carbohydrates (oligosaccharides) was investigated in broiler chickens.
432 day-old male broiler chicks were used in the experiment carried out over six weeks in a poultry research unit. Chicks were assigned at random to one of 12 groups: • Group 1—Control 32° C. (n=36) • Group 2—Control 28° C. (n=36) • Group 3—Experimental Formulation A 32° C. (n=36) • Group 4—Experimental Formulation A 28° C. (n=36) • Group 5—Experimental Formulation B 28° C. (n=36) • Group 6—Experimental Formulation C 28° C. (n=36) • Group 7—Performance Enhancer 32° C. (n=36) • Group 8—Performance Enhancer 28° C. (n=36) • Group 9—Oligosaccharide 32° C. (n=36) • Group 10—Oligosaccharide 28° C. (n=36) • Group 11—Experimental Formulation A+Performance Enhancer 32° C. (n=36) • Group 12—Experimental Formulation A+Oligosaccharide 32C (n=36)
Once selected, groups of 6 birds were housed per cage in heated brooders (i.e. One treatment group (36 birds) per 6 cages). Each group had access to pelleted feed (NRM New Zealand) in excess of requirements during the trial conforming to standard poultry use Ross broiler specification), and water was freely available. During the manufacturing of the feed the following treatments were included.
SAC Agent (2-methyl-1,2-di-3-pyridyl-1-propanone, vitamin C, valine, isoleucine and leucine mixture), mixed with a glucose-based polymer carrier (0.01 g drug to 1 g of carrier) before addition to the feed in the following doses. • Formulation A (per kg feed): • 0.01 g 2-methyl-1,2-di-3-pyridyl-1-propanone • 0.1 g Vitamin C • 5 mg Valine, isoleucine and leucine • Formulation B (per kg feed): • 0.005 g 2-methyl-1,2-di-3-pyridyl-1-propanone • 0.05 g Vitamin C • 0.5 mg Valine, isoleucine and leucine • Formulation C (per kg feed): • 0.001 g 2-methyl-1,2-di-3-pyridyl-1-propanone • 0.01 g Vitamin C • 0.1 mg Valine, isolcucine and leucine • Performance Enhancers: • (Avilamycin (Surmax): Elanco Animal Health, Indianapolis, USA) • Dose: <0.2 g/kg (antibiotic concentration of 0.1 (g/ml). • Mannan oligosaccharide—indigestible carbohydrate (Bio-Mos: Alltech, Inc.USA) • Dose: 1 g/kg
Daily feed intake was recorded for each group of birds, and all birds were weighed weekly.
Birds were either kept at optimum temperature levels (32° C.) or exposed to cold stress (28° C.) from day 1 until day 14 of the trial. After 14 days they were removed to larger raised horizontal cages where all groups were maintained at 21° C. The birds remained in these cages for the remainder of the trial after which time they were slaughtered. After slaughter, meat from 6 birds per group was analysed for fat composition.

[2] = Stress relieving compounds given with anthelmintic, growth of ewes over 12 months (Experiment 13); type: in vivo, sheep; settings: for effect on growth compared to control animals (FIG. 20): ewes treated every 2 months with anthelmintic plus agent; for effect on growth: alone or added to metyrapone
Procedure: […] A further 7 ewes received either astressin 0.0005 g or astressin and metyrapone (astressin at 0.0005 g and metyrapone at 0.001 g) and the vitamin C and amino acid mixture as above.
Bodyweight was measured monthly and animals were treated equivalently in all other aspects.

[3] = Dose response of metyrapone, growth promotant effects in pigs (Experiment 9); type: in vivo; settings: oral three times over six weeks
Procedure: (§1) In four different species (sheep, poultry, pigs and rats) different dosages of the compound metyrapone alone or in combination with vitamin C, isoleucine, leucine, valine were tested for growth promotant effects.
(§2) These mixtures were administered by oral routes three times over six weeks and a control group was administered a glucose mix at the same time (calorie equivalent). Animal growth in terms of liveweight gains were measured over periods of time, as was feed consumed.

[4] = tested on: faecal count (parasites); assay: Increase of anthelmintic effect, monthly faecal count (Experiment 10); type: in vivo, sheep; settings: anthelmintics and agents given every four months; faecal count each month
Procedure: In a further experiment similar to that described in experiments 3 and 4 the increased anthelmintic effect from vitamin C, isoleucine, valine and leucine alone or in combination with metyrapone, and metyrapone and pyrrolopyrimidine was tested. Anthelmintics and these agents were given every four months and faecal count calculated each month in between treatments.

[5] = Growth rate of sheep given metyrapone with anthelmintic treatment (Experiments 3 and 6); type: in vivo; settings: no additional stresses; metyrapone 5 mg/kg at the time of anthelmintic treatment
Description: In a first series of experiments, sheep were divided into pairs from initial twins. All the animals were grazed together, on the same paddocks, from pairing through to the end of the trial. They were thus exposed to the same potential parasite load and the same access to feed and water. The animals were also genetically similar (i.e at least one shared parent). Experiments were begun when the animal was 3 months of age. One half of the pairings were rounded up once a week and run through a race (control group). Any normal farm maintenance that was needed was done at this time, so that the time that animals may have been held was variable from week to week but consistent across the entire group and with the experimental group (see below). Faecal samples were also collected and both total egg and nematode egg counts calculated, and visual inspection for ectoparasites made. Animals were subject to the same anthelmintic treatments consisting of three pour-on (Ivomec pour on, MSD 1 ml per 50 kg), three oral (Endex, Novartis—1 ml per 5 kg) and three injectable treatments (levamisole. 7.5 mg/kg) per year (every four months). In a similar set of experiments to experiment 1, the animals in the chronic stress group also all received a chemical substance metyrapone (in an oral form at 5 mg/kg live weight) at the time of anthelmintic treatment. […]

[6] = Reproductive success of ewes (Experiment 11); type: in vivo, sheep; settings: over 3 seasons following original metyrapone treatments, vs control group
Description: Female sheep (20 ewes) chosen from original experiments in experiments 4, 5 and 6 were studied for seasonal reproductive success for up to 3 seasons following the original metyrapone treatments. These animals received no further metyrapone treatments and were kept in a flock with a similar selected group of 20 control age and weight matched counterparts that had not received metyrapone treatment.
In a separate experiment using the different sheep with no previous exposure to treatments, 20 age and bodyweight matched ewes were run as a flock. Ten of these ewes received three treatments of metyrapone and vitamin C, isoleucine, leucine and valine at a dosage of 0.001 g metyrapone/0.01 g vitamin c, 0.0005 g each of valine, isoleucine and leucine per kg liveweight in an oral form without anthelmintics. These three treatments occurred one month prior to conception, in the first and third trimester of pregnancy. The remaining ten ewes received a similar handling and control administration of a glucose-amino acid mixture.

[7] = Dose response and dose composition, growth promotant effects (Experiment 9); type: in vivo, sheep, poultry, pigs and rats; settings: oral three times over six weeks
Procedure: as §1, §2

[8] = tested on: nematode; assay: Anthelmintic efficacy (faecal egg / nematode counts) in stressed sheep given metyrapone (Experiments 3-5); type: in vivo
Description: In a first series of experiments, sheep were divided into pairs from initial twins. All the animals were grazed together, on the same paddocks, from pairing through to the end of the trial. They were thus exposed to the same potential parasite load and the same access to feed and water. The animals were also genetically similar (i.e at least one shared parent). Experiments were begun when the animal was 3 months of age. One half of the pairings were rounded up once a week and run through a race (control group). Any normal farm maintenance that was needed was done at this time, so that the time that animals may have been held was variable from week to week but consistent across the entire group and with the experimental group (see below). Faecal samples were also collected and both total egg and nematode egg counts calculated, and visual inspection for ectoparasites made. The other half of the pairings (chronic stress group) were exposed to the same handling […] (consistent with the single weekly procedure above) and in addition to this were run around a paddock by either a human or dog (alternating) for 10 minutes. In this manner a mild, chronic, handling stress was imposed on these animals. Races and handling facilities were cleaned between animal movements to avoid any risk of parasitic contamination. Animals were subject to the same anthelmintic treatments consisting of three pour-on (Ivomec pour on, MSD 1 ml per 50 kg), three oral (Endex, Novartis—1 ml per 5 kg) and three injectable treatments (levamisole. 7.5 mg/kg) per year (every four months). In a similar parallel experiment the control group was identical and the paired group to this control (acute stress) received identical treatment to the control group and in addition an acute stress one day prior to anthelmintic treatment. This consisted of chasing the group three times during the day with a dog for 15 min duration each time. The faecal egg count and ectoparasite assessment was the same in both groups at time of the first experimental anthelmintic treatment. […]

[9] = tested on: faecal egg count (parasites); assay: Nitric oxide donor and anthelmintic efficacy, time until faecal egg count rose to around 600 (Experiment 15); type: in vivo, sheep; settings: 0.0001 g per kg liveweight oral with anthelmintic every four months
Description: In a separate experiment 20 sheep (mixed male and females) received standard anthelmintic treatments similar to experiments 3 and 4, with anthelmintics and treatments given every four months. Treatment in 10 of these animals consisted of the anthelmintic dosing and S-nitroso-N-acetylpenicillamine, a nitric oxide donor at a dose of 0.0001 g per kg liveweight in an oral form. The other 10 received the anthelmintic and a glucose control. Anthelmintic successfulness in terms of time from treatment until faecal egg count rose to around 600 as described in experiments 3 and 4 was examined. […] FIG. 22 illustrates this.

[10] = week 2, end of the cold stress period 28° C.
[11] = week 3, after the stressor was removed (21° C.)
[12] = week 4, after the stressor was removed (21° C.)

COC[C@H]1O[C@@H](OC2OC[C@@H]3O[C@]4(O[C@H]3[C@H]2OC(=O)C(C)C)O[C@H](C)[C@@](O)(C(C)=O)[C@@H]2OCO[C@H]24)[C@@H](OC)[C@@H](O)[C@@H]1O[C@@H]1O[C@H](C)[C@H](OC)[C@H](O[C@H]2C[C@@]3(C)OC4(C[C@@H](O)[C@H](O[C@H]5C[C@@H](O)[C@H](OC(=O)c6c(C)c(Cl)c(O)c(Cl)c6OC)[C@@H](C)O5)[C@@H](C)O4)O[C@@H]3[C@@H](C)O2)[C@H]1O (some centres unmarked) [antibiotic performance enhancer, Avilamycin]
rate of growth in comparison to birds given the SAC ([1]; exposed to cold stress, during cold stress and afterwards): lower rate of growth
weight heavier than control birds ([1]; week 1, cold stress 28° C.): 3.5 g
weight heavier than control birds, percent ([1]; week 1, cold stress 28° C.): 2.0%
weight heavier than control birds [1, 10]: 6.3 g
weight heavier than control birds, percent [1, 10]: 1.3%
weight heavier than control birds [1, 11]: 42.6 g
weight heavier than control birds, percent [1, 11]: 4.5%
weight heavier than control birds [1, 12]: 35.2 g
weight heavier than control birds, percent [1, 12]: 2.2%

CCCN(CCC)C(=O)C(CCC(=O)O)NC(=O)c1ccccc1 (centres unmarked) [proglumide]
effect on growth compared to control animals (FIG. 20) [2]: small positive effect

CC(C)(C(=O)c1cccnc1)c1cccnc1 [metyrapone, 2-methyl-1,2-di-3-pyridyl-1-propanone]
% gain in production with dose [3]: a low and a high dose were effective however a mid-range dose did not produce the same gains
anthelmintic effectiveness (faecal count) [4]: more effective than with the anthelmintic alone
net gain, growth over the year (mean) [5]: 18 kg
Kg of Growth in 12 months ([2]; 0.0001 g/kg metyrapone): 13 ± 3 kg
Kg of Growth in 12 months ([2]; 0.0001 g/kg metyrapone + control): 14 ± 3 kg
effect on growth compared to control animals (FIG. 20) [2]: larger effect
birthweight of lambs [6]: slightly greater than seen in the control group
% gain in production with increase in dose ([7]; all species except pigs): an increase in gain was seen with an increase in dose of metyrapone levelling out
growth (liveweight gain) ([7]; all species): increased growth
differences between acute stress and control groups ([8]; acute stress group receiving metyrapone oral 5 mg/kg with anthelmintic): no differences were seen between the acute and control groups
efficacy of anthelmintics compared with the non-stressed groups ([8]; chronic stress group, metyrapone oral 5 mg/kg live weight at the time of anthelmintic treatment): same efficacy of anthelmintics as the non-stressed groups
time until nematode counts exceeded recommended number for dosing ([8]; one treatment including metyrapone, chronic and acute stressed animals vs control group): no differences to the control group

CC(=O)N[C@H](C(=O)O)C(C)(C)SN=O (racemic) [S-nitroso-N-acetylpenicillamine]
effectiveness of anthelmintic (time until faecal egg count rose to around 600) [9]: better effectiveness of anthelmintic than control animals

CC#C[C@]1(O)CC[C@H]2[C@@H]3CCC4=CC(=O)CCC4=C3[C@@H](c3ccc(N(C)C)cc3)C[C@@]21C [mifepristone]
Kg of Growth in 12 months ([2]; 0.0001 g/kg mifepristone): 4 ± 4 kg
Kg of Growth in 12 months ([2]; 0.0005 g/kg mifepristone): 8 ± 2 kg
effect on growth compared to control animals (FIG. 20) [2]: small positive effect
effect on growth ([2]; mifepristone dose 0.0001 g/kg): no effect compared to control
effect on growth ([2]; mifepristone dose 0.0005 g/kg): small increase in growth over control treatments

astressin
Kg of Growth in 12 months ([2]; 0.0005 g/kg astressin): 10 ± 4 kg
